Results: PubChem BioAssay (NCI)
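Following 48 hours of exposure in 96-well plates, responses at five concentrations were used to interpolate endpoints linearly. TGI: total growth inhibition.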

Tests used:
Assay in all cases: NCI tumour cell line growth inhibition, 48 h
T-47D breast = system: T-47D breast
BT-549 breast = system: BT-549 breast
SF-268 CNS = system: SF-268 CNS
HCT-15 colon = system: HCT-15 colon
DU-145 prostate = system: DU-145 prostate
OVCAR-3 ovarian = system: OVCAR-3 ovarian
SK-MEL-28 melanoma = system: SK-MEL-28 melanoma
IGROV1 ovarian = system: IGROV1 ovarian
SF-539 CNS = system: SF-539 CNS
A549 NSCLC = system: A549 NSCLC
MDA-MB-231 breast = system: MDA-MB-231 breast
HCT-116 colon = system: HCT-116 colon
OVCAR-4 ovarian = system: OVCAR-4 ovarian
NCI-H522 lung = system: NCI-H522 lung
ACHN renal = system: ACHN renal
SK-MEL-2 melanoma = system: SK-MEL-2 melanoma
K-562 leukemia = system: K-562 leukemia
MALME-3M melanoma = system: MALME-3M melanoma
SR leukemia = system: SR leukemia
RXF 393 renal = system: RXF 393 renal
SF-295 CNS = system: SF-295 CNS
CAKI-1 renal = system: CAKI-1 renal
CCRF-CEM leukemia = system: CCRF-CEM leukemia
RPMI-8226 leukemia = system: RPMI-8226 leukemia
HOP-62 NSCLC = system: HOP-62 NSCLC
HOP-92 NSCLC = system: HOP-92 NSCLC
OVCAR-5 ovarian = system: OVCAR-5 ovarian
SNB-19 CNS = system: SNB-19 CNS
PC-3 prostate = system: PC-3 prostate
TK-10 renal = system: TK-10 renal
M14 melanoma = system: M14 melanoma
NCI-H23 lung = system: NCI-H23 lung
NCI-H460 lung = system: NCI-H460 lung
SN12C renal = system: SN12C renal
UACC-62 melanoma = system: UACC-62 melanoma
SNB-75 CNS = system: SNB-75 CNS
COLO 205 colon = system: COLO 205 colon
A498 renal = system: A498 renal
U251 CNS = system: U251 CNS
HCC-2998 colon = system: HCC-2998 colon
HS 578T breast = system: HS 578T breast
786-0 renal = system: 786-0 renal
HL-60(TB) leukemia = system: HL-60(TB) leukemia
NCI-H226 lung = system: NCI-H226 lung
MDA-N = system: MDA-N
SK-MEL-5 melanoma = system: SK-MEL-5 melanoma
MCF7 breast = system: MCF7 breast
SW-620 colon = system: SW-620 colon
OVCAR-8 ovarian = system: OVCAR-8 ovarian
UACC-257 melanoma = system: UACC-257 melanoma
LOX IMVI melanoma = system: LOX IMVI melanoma
HT29 colon = system: HT29 colon
EKVX NSCLC = system: EKVX NSCLC
NCI/ADR-RES ovarian = system: NCI/ADR-RES ovarian
MDA-MB-435 = system: MDA-MB-435
KM12 colon = system: KM12 colon
UO-31 renal = system: UO-31 renal
MOLT-4 leukemia = system: MOLT-4 leukemia

SMILES: Cc1cc(=O)oc2cc(OS(C)(=O)=O)ccc12
- TGI (T-47D breast): > 100 µM
- TGI (BT-549 breast): > 100 µM
- TGI (SF-268 CNS): > 100 µM
- TGI (HCT-15 colon): > 100 µM
- TGI (DU-145 prostate): > 100 µM
- TGI (OVCAR-3 ovarian): > 100 µM
- TGI (SK-MEL-28 melanoma): > 100 µM
- TGI (IGROV1 ovarian): > 100 µM
- TGI (SF-539 CNS): > 100 µM
- TGI (A549 NSCLC): > 100 µM
- TGI (MDA-MB-231 breast): > 100 µM
- TGI (HCT-116 colon): > 100 µM
- TGI (OVCAR-4 ovarian): > 100 µM
- TGI (NCI-H522 lung): > 100 µM
- TGI (ACHN renal): > 100 µM
- TGI (SK-MEL-2 melanoma): > 100 µM
- TGI (K-562 leukemia): > 100 µM
- TGI (MALME-3M melanoma): > 100 µM
- TGI (SR leukemia): > 100 µM
- TGI (RXF 393 renal): > 100 µM
- TGI (SF-295 CNS): > 100 µM
- TGI (CAKI-1 renal): > 100 µM
- TGI (CCRF-CEM leukemia): > 100 µM
- TGI (RPMI-8226 leukemia): > 100 µM
- TGI (HOP-62 NSCLC): > 100 µM
- TGI (HOP-92 NSCLC): > 100 µM
- TGI (OVCAR-5 ovarian): > 100 µM
- TGI (SNB-19 CNS): > 100 µM
- TGI (PC-3 prostate): > 100 µM
- TGI (TK-10 renal): > 100 µM
- TGI (M14 melanoma): > 100 µM
- TGI (NCI-H23 lung): > 100 µM
- TGI (NCI-H460 lung): > 100 µM
- TGI (SN12C renal): > 100 µM
- TGI (UACC-62 melanoma): > 100 µM
- TGI (SNB-75 CNS): > 100 µM
- TGI (COLO 205 colon): > 100 µM
- TGI (A498 renal): > 100 µM
- TGI (U251 CNS): > 100 µM
- TGI (HCC-2998 colon): > 100 µM
- TGI (HS 578T breast): > 100 µM
- TGI (786-0 renal): > 100 µM
- TGI (HL-60(TB) leukemia): > 100 µM
- TGI (NCI-H226 lung): > 100 µM
- TGI (MDA-N): > 100 µM
- TGI (SK-MEL-5 melanoma): > 100 µM
- TGI (MCF7 breast): > 100 µM
- TGI (SW-620 colon): > 100 µM
- TGI (OVCAR-8 ovarian): > 100 µM
- TGI (UACC-257 melanoma): > 100 µM
- TGI (LOX IMVI melanoma): > 100 µM
- TGI (HT29 colon): > 100 µM
- TGI (EKVX NSCLC): > 100 µM
- TGI (NCI/ADR-RES ovarian): > 100 µM
- TGI (MDA-MB-435): > 100 µM

SMILES: Cc1cc(N(CCCl)CCCl)ccc1/C=N/NC(=O)Cc1cc(=O)oc2cc(O)ccc12
- TGI (T-47D breast): 56.9 µM
- TGI (BT-549 breast): 34.7 µM
- TGI (SF-268 CNS): 56.4 µM
- TGI (HCT-15 colon): > 100 µM
- TGI (DU-145 prostate): > 100 µM
- TGI (OVCAR-3 ovarian): 72.8 µM
- TGI (SK-MEL-28 melanoma): 41.9 µM
- TGI (IGROV1 ovarian): 40.7 µM
- TGI (SF-539 CNS): 40.7 µM
- TGI (A549 NSCLC): 42.2 µM
- TGI (MDA-MB-231 breast): 86.8 µM
- TGI (HCT-116 colon): 40.5 µM
- TGI (OVCAR-4 ovarian): > 100 µM
- TGI (NCI-H522 lung): 31.5 µM
- TGI (ACHN renal): 40.3 µM
- TGI (SK-MEL-2 melanoma): > 100 µM
- TGI (K-562 leukemia): 66.1 µM
- TGI (MALME-3M melanoma): 27.7 µM
- TGI (SR leukemia): > 100 µM
- TGI (RXF 393 renal): 44.3 µM
- TGI (SF-295 CNS): 50.8 µM
- TGI (CAKI-1 renal): 26.3 µM
- TGI (CCRF-CEM leukemia): 46 µM
- TGI (RPMI-8226 leukemia): 57.5 µM
- TGI (HOP-62 NSCLC): 39.7 µM
- TGI (HOP-92 NSCLC): > 100 µM
- TGI (OVCAR-5 ovarian): 93.7 µM
- TGI (SNB-19 CNS): 41 µM
- TGI (PC-3 prostate): 27.5 µM
- TGI (M14 melanoma): 35.1 µM
- TGI (NCI-H23 lung): 58.6 µM
- TGI (NCI-H460 lung): 30.5 µM
- TGI (SN12C renal): 38.2 µM
- TGI (UACC-62 melanoma): 13.2 µM
- TGI (SNB-75 CNS): > 100 µM
- TGI (COLO 205 colon): 36.7 µM
- TGI (A498 renal): 45.3 µM
- TGI (U251 CNS): 43.4 µM
- TGI (KM12 colon): 36.6 µM
- TGI (HCC-2998 colon): 72 µM
- TGI (HS 578T breast): 56.3 µM
- TGI (786-0 renal): 59.7 µM
- TGI (HL-60(TB) leukemia): 33.5 µM
- TGI (NCI-H226 lung): 43.2 µM
- TGI (MDA-N): 32.4 µM
- TGI (SK-MEL-5 melanoma): 21.1 µM
- TGI (MCF7 breast): 20.4 µM
- TGI (SW-620 colon): 66.9 µM
- TGI (OVCAR-8 ovarian): > 100 µM
- TGI (UACC-257 melanoma): 58.1 µM
- TGI (LOX IMVI melanoma): 26.7 µM
- TGI (UO-31 renal): 47.2 µM
- TGI (HT29 colon): 31.2 µM
- TGI (MOLT-4 leukemia): 50.4 µM
- TGI (EKVX NSCLC): 82.9 µM
- TGI (NCI/ADR-RES ovarian): > 100 µM
- TGI (MDA-MB-435): 38.5 µM
